Calls of active or inactive are those of the source. No cut-off for these calls is given here.
How the values were obtained:
[1] = system: Aequorea victoria; assay: Binding affinity to Aequorea victoria GFP mRNA (1-26) assessed as melting temperature
[2] = system: Aequorea victoria; assay: Binding affinity to Aequorea victoria GFP mRNA (1-26) assessed as change in melting temperature
[3] = system: Aequorea victoria; assay: Blockade of Aequorea victoria GFP mRNA (1-26) translation activity assessed as reduction in protein expression level at a drug:mRNA molar ratio of 12:1 measured prior to UV irradiation by gel electrophoresis; parameters: scale not given: the % may be the effect or the level left
[4] = system: Aequorea victoria; assay: Blockade of Aequorea victoria GFP mRNA (1-26) translation activity assessed as reduction in protein expression level measured after UV irradiation at a drug:mRNA molar ratio of 12:1 measured after UV irradiation by gel electrophoresis
[5] = system: Aequorea victoria; assay: Blockade of Aequorea victoria GFP mRNA (1-26) translation activity assessed as reduction in protein expression level at a drug:mRNA molar ratio of 2:1 measured prior to UV irradiation by gel electrophoresis; parameters: scale not given: the % may be the effect or the level left
[6] = system: Aequorea victoria; assay: Blockade of Aequorea victoria GFP mRNA (1-26) translation activity assessed as reduction in protein expression level at a drug:mRNA molar ratio of 2:1 measured after UV irradiation by gel electrophoresis

Tm [1] | ΔTm [2] | Activity [3] | Activity [4] | Activity [5] | Activity [6] | SMILES
62.2 °C | 32 °C | 10% | Active | – | – | CC(OC(=O)NCCCCCCOC[C@H]1O[C@@H](n2ccc(N)nc2=O)[C@H](O)[C@@H]1OP(=O)(O)OC[C@H]1O[C@@H](n2ccc(=O)[nH]c2=O)[C@H](O)[C@@H]1OP(=O)(O)OC[C@H]1O[C@@H](n2cnc3c(N)ncnc32)[C@H](O)[C@@H]1OP(=O)(O)OC[C@H]1O[C@@H](n2cnc3c(=O)[nH]c(N)nc32)[C@H](O)[C@@H]1OP(=O)(O)OC[C@H]1O[C@@H](n2ccc(N)nc2=O)[C@H](O)[C@@H]1OP(=O)(O)OC[C@H]1O[C@@H](n2ccc(N)nc2=O)[C@H](O)[C@@H]1OP(=O)(O)OC[C@H]1O[C@@H](n2cnc3c(N)ncnc32)[C@H](O)[C@@H]1OP(=O)(O)OC[C@H]1O[C@@H](n2cnc3c(=O)[nH]c(N)nc32)[C@H](O)[C@@H]1OC[C@H]1O[C@@H](n2ccc(N)nc2=O)[C@H](O)[C@@H]1OC[C@H]1O[C@@H](n2ccc(=O)[nH]c2=O)[C@H](O)[C@@H]1O)c1cc(CN2C(=O)CC(SCCCO[C@H]3[C@@H](O)[C@H](n4ccc(=O)[nH]c4=O)O[C@@H]3COP(=O)(O)O[C@H]3[C@@H](O)[C@H](n4cnc5c(=O)[nH]c(N)nc54)O[C@@H]3COP(=O)(O)O[C@H]3[C@@H](O)[C@H](n4ccc(=O)[nH]c4=O)O[C@@H]3COP(=O)(O)O[C@H]3[C@@H](O)[C@H](n4cnc5c(=O)[nH]c(N)nc54)O[C@@H]3COP(=O)(O)O[C@H]3[C@@H](O)[C@H](n4cnc5c(=O)[nH]c(N)nc54)O[C@@H]3COP(=O)(O)O[C@H]3[C@@H](O)[C@H](n4ccc(=O)[nH]c4=O)O[C@@H]3COP(=O)(O)O[C@H]3[C@@H](O)[C@H](n4cnc5c(N)ncnc54)O[C@@H]3COP(=O)(O)O[C@H]3[C@@H](O)[C@H](n4ccc(N)nc4=O)O[C@@H]3CO)C2=O)ccc1[N+](=O)[O-] (some centres not stated)
81.2 °C | 24 °C | – | – | 100% | Active | CC(OC(=O)NCCCCCCOC[C@H]1O[C@@H](n2ccc(N)nc2=O)[C@H](O)[C@@H]1OP(=O)(O)OC[C@H]1O[C@@H](n2ccc(N)nc2=O)[C@H](O)[C@@H]1OP(=O)(O)OC[C@H]1O[C@@H](n2cnc3c(N)ncnc32)[C@H](O)[C@@H]1OP(=O)(O)OC[C@H]1O[C@@H](n2cnc3c(=O)[nH]c(N)nc32)[C@H](O)[C@@H]1OP(=O)(O)OC[C@H]1O[C@@H](n2ccc(N)nc2=O)[C@H](O)[C@@H]1OP(=O)(O)OC[C@H]1O[C@@H](n2ccc(=O)[nH]c2=O)[C@H](O)[C@@H]1OP(=O)(O)OC[C@H]1O[C@@H](n2ccc(=O)[nH]c2=O)[C@H](O)[C@@H]1OP(=O)(O)OC[C@H]1O[C@@H](n2cnc3c(=O)[nH]c(N)nc32)[C@H](O)[C@@H]1OP(=O)(O)OC[C@H]1O[C@@H](n2cnc3c(=O)[nH]c(=O)[nH]c32)[C@H](O)[C@@H]1OP(=O)(O)OC[C@H]1O[C@@H](n2cnc3c(=O)[nH]c(=O)[nH]c32)[C@H](O)[C@@H]1OP(=O)(O)OC[C@H]1O[C@@H](n2ccc(=O)[nH]c2=O)[C@H](O)[C@@H]1OP(=O)(O)OC[C@H]1O[C@@H](n2ccc(N)nc2=O)[C@H](O)[C@@H]1O)c1cc(CN2C(=O)CC(SCCCO[C@H]3[C@@H](O)[C@H](n4cnc5c(=O)[nH]c(N)nc54)O[C@@H]3COP(=O)(O)O[C@H]3[C@@H](O)[C@H](n4cnc5c(N)ncnc54)O[C@@H]3COP(=O)(O)O[C@H]3[C@@H](O)[C@H](n4ccc(=O)[nH]c4=O)O[C@@H]3COP(=O)(O)O[C@H]3[C@@H](O)[C@H](n4ccc(N)nc4=O)O[C@@H]3CO[C@@H]3[C@H](O)[C@@H](COP(=O)(O)O[C@H]4[C@@H](O)[C@H](n5cnc6c(=O)[nH]c(N)nc65)O[C@@H]4COP(=O)(O)O[C@H]4[C@@H](O)[C@H](n5ccc(=O)[nH]c5=O)O[C@@H]4COP(=O)(O)O[C@H]4[C@@H](O)[C@H](n5cnc6c(=O)[nH]c(N)nc65)O[C@@H]4COP(=O)(O)O[C@H]4[C@@H](O)[C@H](n5cnc6c(=O)[nH]c(N)nc65)O[C@@H]4COP(=O)(O)O[C@H]4[C@@H](O)[C@H](n5ccc(=O)[nH]c5=O)O[C@@H]4COP(=O)(O)O[C@H]4[C@@H](O)[C@H](n5cnc6c(N)ncnc65)O[C@@H]4COP(=O)(O)O[C@H]4[C@@H](O)[C@H](n5ccc(N)nc5=O)O[C@@H]4CO)O[C@H]3n3ccc(=O)[nH]c3=O)C2=O)ccc1[N+](=O)[O-] (some centres not stated)
72.4 °C | 20 °C | – | – | 100% | Active | CC(OC(=O)NCCCCCCOC[C@H]1O[C@@H](n2ccc(N)nc2=O)[C@H](O)[C@@H]1OP(=O)(O)OC[C@H]1O[C@@H](n2ccc(=O)[nH]c2=O)[C@H](O)[C@@H]1OP(=O)(O)OC[C@H]1O[C@@H](n2cnc3c(N)ncnc32)[C@H](O)[C@@H]1OP(=O)(O)OC[C@H]1O[C@@H](n2cnc3c(=O)[nH]c(N)nc32)[C@H](O)[C@@H]1OP(=O)(O)OC[C@H]1O[C@@H](n2ccc(N)nc2=O)[C@H](O)[C@@H]1OP(=O)(O)OC[C@H]1O[C@@H](n2ccc(N)nc2=O)[C@H](O)[C@@H]1OP(=O)(O)OC[C@H]1O[C@@H](n2cnc3c(N)ncnc32)[C@H](O)[C@@H]1OP(=O)(O)OC[C@H]1O[C@@H](n2cnc3c(=O)[nH]c(N)nc32)[C@H](O)[C@@H]1OC[C@H]1O[C@@H](n2ccc(N)nc2=O)[C@H](O)[C@@H]1OC[C@H]1O[C@@H](n2ccc(=O)[nH]c2=O)[C@H](O)[C@@H]1O)c1cc(CN2C(=O)CC(SCCCO[C@H]3[C@@H](O)[C@H](n4ccc(=O)[nH]c4=O)O[C@@H]3COP(=O)(O)O[C@H]3[C@@H](O)[C@H](n4cnc5c(=O)[nH]c(N)nc54)O[C@@H]3COP(=O)(O)O[C@H]3[C@@H](O)[C@H](n4ccc(=O)[nH]c4=O)O[C@@H]3COP(=O)(O)O[C@H]3[C@@H](O)[C@H](n4cnc5c(=O)[nH]c(N)nc54)O[C@@H]3COP(=O)(O)O[C@H]3[C@@H](O)[C@H](n4cnc5c(=O)[nH]c(N)nc54)O[C@@H]3COP(=O)(O)O[C@H]3[C@@H](O)[C@H](n4ccc(=O)[nH]c4=O)O[C@@H]3COP(=O)(O)O[C@H]3[C@@H](O)[C@H](n4cnc5c(N)ncnc54)O[C@@H]3COP(=O)(O)O[C@H]3[C@@H](O)[C@H](n4ccc(N)nc4=O)O[C@@H]3CO[C@H]3[C@@H](O)[C@H](n4ccc(N)nc4=O)O[C@@H]3CO[C@H]3[C@@H](O)[C@H](n4cnc5c(=O)[nH]c(N)nc54)O[C@@H]3CO)C2=O)ccc1[N+](=O)[O-] (some centres not stated)
